Data: patent publication US12534469B2 (CHILDREN'S HOSPITAL MEDICAL CENTER, priority 2020, dated 2026)

How the values were obtained:
[1] = biological target: T1, IRAK4 (Homo sapiens, UniProt Q9NWZ3); assay: Reaction Biology NanoBRET target engagement assay, IRAK4; assay type: cell-based; conditions: transfected HEK-293 cells
T1 sequence (Q9NWZ3 1-460): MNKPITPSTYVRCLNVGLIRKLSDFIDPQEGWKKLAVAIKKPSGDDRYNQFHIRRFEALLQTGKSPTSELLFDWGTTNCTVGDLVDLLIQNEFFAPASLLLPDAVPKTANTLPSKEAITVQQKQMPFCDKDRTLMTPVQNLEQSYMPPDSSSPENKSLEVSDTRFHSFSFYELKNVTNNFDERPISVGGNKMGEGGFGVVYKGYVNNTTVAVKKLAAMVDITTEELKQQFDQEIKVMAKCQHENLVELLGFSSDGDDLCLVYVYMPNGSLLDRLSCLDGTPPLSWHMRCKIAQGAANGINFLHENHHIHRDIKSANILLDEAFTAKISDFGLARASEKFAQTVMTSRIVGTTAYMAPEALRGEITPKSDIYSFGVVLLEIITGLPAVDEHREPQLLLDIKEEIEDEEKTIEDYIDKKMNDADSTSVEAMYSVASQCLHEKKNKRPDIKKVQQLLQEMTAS
Description: (§1) The NanoBRET assay measures kinase engagement in real time in the context of the intact cell. Unlike the previously described biochemical kinase assay methodologies in Examples 26-27, the NanoBRET assay measures the binding and activity characteristics under equilibrium conditions using full-length kinases in the presence of cellular concentrations of ATP in live, uncompromised cells. As such, the assay provides a more relevant assessment of kinase potency and selectivity that would be expected to be observed in the native cellular environment, where potency is often considerably lower than that observed in the isolated biochemical assays (Vasta, J. D. et al., (2018) Cell Chem. Biol. 25, 206-214). The assay uses a Kinase-NanoLuc® fusion vector expressing a kinase protein to which a luciferase tag has been added, a cell-permeant fluorescent NanoBRET™ tracer, a NanoLuc® substrate, and an extracellular NanoLuc® inhibitor. Upon expression of the luciferase-tagged kinase, cells will produce a strong BRET signal only in the presence of the NanoBRET™ tracer. The extracellular NanoLuc® inhibitor ensures that the BRET signal observed emanates only from live cells. Because the BRET signal has tight distance constraints, addition of the test compound will decrease the BRET signal if the compound competes with the NanoBRET™ tracer for binding to the kinase domain. Under the appropriate tracer conditions established by the manufacturer, quantitative intracellular affinity and relative potency can then be determined using Mass Action model equations.
(§2) HEK-293 cells were purchased from ATCC. FuGENEHD Transfection Reagent, Kinase-NanoLucfusion plasmids, Transfection Carrier DNA, NanoBRETTracers and dilution buffer, NanoBRETNano-Glo Substrate, Extracellular NanoLucInhibitor were obtained from Promega.
(§3) Assays were conducted following Promega assay protocol with some modifications. HEK-293 Cells were transiently transfected with Kinase-NanoLucFusion Vector DNA by FuGENEHD Transfection Reagent. Testing compounds were delivered into 384 well assay plate by Echo 550 (LabcyteInc, Sunnyvale, CA). Transfected cells were harvested and mixed with NanoBRETTracer Reagent and dispensed into 384 well plates and incubated at 37° C. in 5% CO2 cell culture incubator for 1 hour. The NanoBRETNano-Glo Substrate plus Extracellular NanoLucInhibitor Solution were added into the wells of the assay plate and incubated for 2-3 minutes at room temperature. The donor emission wavelength (460 nm) and acceptor emission wavelength (600 nm) were measured in the EnVisionplate reader. The BRET Ratios were calculated. BRET Ratio=[(Acceptor sample÷Donor sample)−(Acceptor no-tracer control÷Donor no-tracer control)]. The IC50 values of compounds were calculated with Prism GraphPad program.
(§4) • 1). Cultivate HEK-293 cells (70-80% confluence) appropriately prior to assay. Trypsinize and collect HEK-293 cells. • 2). Prepare lipid: DNA complexes as follows: • a. Prepare a 10 μg/ml solution of DNA in Opti-MEM without serum that consists of the following ratios of carrier DNA and DNA encoding NanoLuc® fusion. 9.0 μg/mL of Transfection Carrier DNA, 1.0 μg/mL of NanoLuc fusion vector DNA and 1 mL of Opti-MEM without phenol red. Mix thoroughly. • b. Add 30 μl of FuGENE HD Transfection Reagent into each milliliter of DNA mixture to form lipid:DNA complex. • c. Mix by inversion 10 times. • d. Incubate at ambient temperature for 20 minutes to allow complexes to form. • 3). In a sterile, conical tube, mix 1 part of lipid:DNA complex with 20 parts of HEK-293 cells in suspension. Mix gently by inversion 5 times. • 4). Dispense cells+lipid:DNA complex into a sterile tissue culture dish and incubate for 22-24 hours. 2. Addition of Test Compounds (Dry Plate Shooting)
(§5) Each test compound is delivered from the compound source plate to the wells of 384-well white NBS plate by Echo 550.
• 1). […]

[2] = biological target: T2, FLT3 (Homo sapiens, UniProt P36888); assay: Reaction Biology NanoBRET target engagement assay, FLT3; assay type: cell-based; conditions: transfected HEK-293 cells
T2 construct: using full-length kinases in the presence of cellular concentrations of ATP in live, uncompromised cells; assay by Reaction Biology; host or cells: HEK-293 (ATCC), transient transfection
T2 sequence (P36888 27-993): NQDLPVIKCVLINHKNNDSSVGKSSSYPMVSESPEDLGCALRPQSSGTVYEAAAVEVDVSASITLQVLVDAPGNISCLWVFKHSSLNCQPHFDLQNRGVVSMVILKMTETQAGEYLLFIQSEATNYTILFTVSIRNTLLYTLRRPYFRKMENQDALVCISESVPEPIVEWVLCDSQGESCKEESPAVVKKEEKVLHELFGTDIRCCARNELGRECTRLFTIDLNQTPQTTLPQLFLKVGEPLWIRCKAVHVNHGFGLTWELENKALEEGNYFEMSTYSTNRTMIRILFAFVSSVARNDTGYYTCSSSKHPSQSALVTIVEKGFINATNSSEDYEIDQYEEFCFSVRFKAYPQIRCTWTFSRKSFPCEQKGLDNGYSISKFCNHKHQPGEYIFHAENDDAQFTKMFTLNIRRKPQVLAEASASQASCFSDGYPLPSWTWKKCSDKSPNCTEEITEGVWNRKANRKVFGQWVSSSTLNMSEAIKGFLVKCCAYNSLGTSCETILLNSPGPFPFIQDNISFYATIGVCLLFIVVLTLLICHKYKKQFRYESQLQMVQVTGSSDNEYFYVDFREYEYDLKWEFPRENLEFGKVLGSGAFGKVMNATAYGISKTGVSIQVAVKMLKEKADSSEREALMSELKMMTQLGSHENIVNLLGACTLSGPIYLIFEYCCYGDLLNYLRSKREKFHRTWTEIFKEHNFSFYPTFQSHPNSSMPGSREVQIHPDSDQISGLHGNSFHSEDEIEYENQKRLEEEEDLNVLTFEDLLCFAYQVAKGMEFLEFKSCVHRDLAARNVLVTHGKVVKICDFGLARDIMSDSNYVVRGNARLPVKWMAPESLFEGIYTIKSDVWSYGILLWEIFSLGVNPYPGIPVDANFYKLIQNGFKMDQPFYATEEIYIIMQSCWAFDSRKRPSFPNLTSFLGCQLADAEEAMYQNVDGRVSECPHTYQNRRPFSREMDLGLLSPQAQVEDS
Description: as §1, §2, §3, §4, §5
• 1). […]

Row | Compound | IC50 [1] | IC50 [2]
1 | COc1cc2ncc(-c3cccc(N[C@H]4CNC[C@@H]4F)n3)n2nc1C(C)(O)C(F)(F)F (single isomer, unassigned; fast-eluting) [Compound 133] | 0.098 µM | 0.226 µM
2 | F[C@H]1CNC[C@@H]1Nc1cccc(-c2cnc3ccc(-c4cnn5ccccc45)nn23)n1 [Compound 9, N-((3S,4S)-4-fluoropyrrolidin-3-yl)-6-(6-(pyrazolo[1,5-a]pyridin-3-yl)imidazo[1,2-b]pyridazin-3-yl)pyridin-2-amine] | 0.054 µM | 0.367 µM
3 | c1cc(N[C@@H]2CCCNC2)nc(-c2cnc3ccc(-c4cnn5ccccc45)nn23)c1 [Compound 19, (R)-N-(piperidin-3-yl)-6-(6-(pyrazolo[1,5-a]pyridin-3-yl)imidazo[1,2-b]pyridazin-3-yl)pyridin-2-amine] | 0.511 µM | 0.142 µM
4 | COc1cc2ncc(-c3cccc(N[C@H]4CNC[C@@H]4C(F)(F)F)n3)n2nc1C1CC1 [Compound 99, 6-(6-cyclopropyl-7-methoxyimidazo[1,2-b]pyridazin-3-yl)-N-((3R,4S)-4-(trifluoromethyl)pyrrolidin-3-yl)pyridin-2-amine] | 0.003 µM | 0.003 µM
5 | COc1cc2ncc(-c3cccc(N[C@H]4CNCC[C@@H]4F)n3)n2nc1C1CC1 [Compound 102, 6-(6-cyclopropyl-7-methoxyimidazo[1,2-b]pyridazin-3-yl)-N-((3S,4S)-4-fluoropiperidin-3-yl)pyridin-2-amine] | 0.002 µM | 0.004 µM
6 | COc1cc2ncc(-c3nc(N[C@H]4CNC[C@@H]4F)c(F)cc3F)n2nc1C(C)(C)O [Compound 126, 2-(3-(3,5-difluoro-6-(((3S,4S)-4-fluoropyrrolidin-3-yl)amino)pyridin-2-yl)-7-methoxyimidazo[1,2-b]pyridazin-6-yl)propan-2-ol] | 0.007 µM | 1.16 µM
7 | COc1cc2ncc(-c3nc(N[C@@H]4CCCNC4)c(F)cc3F)n2nc1C(C)(C)O [Compound 127, (R)-2-(3-(3,5-difluoro-6-(piperidin-3-ylamino)pyridin-2-yl)-7-methoxyimidazo[1,2-b]pyridazin-6-yl)propan-2-ol] | 0.03 µM | 0.196 µM
8 | COc1cc2ncc(-c3nc(N[C@H]4CNCC[C@@H]4F)c(F)cc3F)n2nc1C(C)(C)O [Compound 128, 2-(3-(3,5-difluoro-6-(((3S,4S)-4-fluoropiperidin-3-yl)amino)pyridin-2-yl)-7-methoxyimidazo[1,2-b]pyridazin-6-yl)propan-2-ol] | 0.015 µM | 0.102 µM

The next lines start with the values.

Row | IC50 [1] | IC50 [2] | Compound
9 | 0.002 µM | 0.018 µM | COc1cc2ncc(-c3cccc(N[C@H]4CNC[C@@H]4F)n3)n2nc1C1CC1 [Compound 96, 6-(6-cyclopropyl-7-methoxyimidazo[1,2-b]pyridazin-3-yl)-N-((3S,4S)-4-fluoropyrrolidin-3-yl)pyridin-2-amine]
10 | < 0.0005 µM | < 0.0005 µM | COc1cc2ncc(-c3nc(N[C@@H]4CCCNC4)c(F)cc3F)n2nc1C1CC1 [Compound 106, (R)-6-(6-cyclopropyl-7-methoxyimidazo[1,2-b]pyridazin-3-yl)-3,5-difluoro-N-(piperidin-3-yl)pyridin-2-amine]
11 | < 0.0005 µM | 4.89 µM | COc1cc2ncc(-c3nc(N[C@H]4CNC[C@@H]4F)c(F)cc3F)n2nc1C1CC1 [Compound 107, 6-(6-cyclopropyl-7-methoxyimidazo[1,2-b]pyridazin-3-yl)-3,5-difluoro-N-((3S,4S)-4-fluoropyrrolidin-3-yl)pyridin-2-amine]
12 | < 0.0005 µM | < 0.0005 µM | COc1cc2ncc(-c3nc(N[C@H]4CNCC[C@@H]4F)c(F)cc3F)n2nc1C1CC1 [Compound 108, 6-(6-cyclopropyl-7-methoxyimidazo[1,2-b]pyridazin-3-yl)-3,5-difluoro-N-((3S,4S)-4-fluoropiperidin-3-yl)pyridin-2-amine]
